Reference: patent US20260306460A1, “COMPOSITION FOR REMOVING AND INHIBITING SENESCENT CELLS, AND USES THEREOF” (LIFECEUTIX CO., LTD., priority 2023, published 2026)

Columns and labels:
naturally aged mice = assay: Open field test in naturally aged mice, Example 15; assay type: in vivo, mouse; conditions: untreated aged = 100%; 5 days; doses as p16 mRNA
Method: In the same manner as in Example 7-1 of WO2023-085787 A1, naturally aged mice were administered LX-405 (5% DMSO in PBS solution, 10 mg/kg, intraperitoneal administration), LX-801 (PBS, 100 mg/kg, intraperitoneal administration), LX-1102 (0.5% CMC-Na solution, 100 mg/kg, oral administration), LX-1801 (PBS, 50 mg/kg, intraperitoneal administration), LX-2101 (0.5% CMC-Na solution, 10 mg/kg, intraperitoneal administration), and LX-3403 (mouse anti-PD-1 antibody (BioXcell), 100 μg, intraperitoneal administration) for 5 days under the following conditions. The control group was administered only the solution in the same volume. After drug administration was completed, the method described in each Example below was performed. The mouse was sacrificed in the same manner as Example 7-2 and 7-6 of WO2023-085787 A1. Total RNA was extracted from liver tissue, and qRT-PCR was performed and analyzed using synthesized cDNA. […] The mRNA amounts of p16, MMP3, and IL6 after natural aging were induced were calculated as 100% and compared them with the mRNA amounts of p16, MMP3, and IL6 after treatment with the test compound. Furthermore, an open field test was performed to analyze aging-related frailty in mice using the same method as Example 7-7 of WO2023-085787 A1. […] The amount of activity evaluated after inducing aging was calculated as 100% and compared it with the amount of activity evaluated after treatment with the test compound.

SAOS-2 = assay: Suppression of doxorubicin-senescent SAOS-2 tumors in nude mice, Example 19; assay type: in vivo, mouse; conditions: after DOX 10 mg/kg ip; 21 days daily; LX-5701 360 mg/kg po, LX-2101 20 mg/kg ip, LX-2102 10 mg/kg ip; DOX repeated as control
Method: Seven-week-old male BALB/c nude mice (KRIBB Laboratory Animal Resource Center) were acclimated to the experimental environment for one week, after which they were randomly assigned to experimental and control groups. Evaluation was performed using the same method as in Example 2-1 of WO2023-085787 A1. Cultured human osteosarcoma cell lines, SAOS-2 (10^6 cells), were mixed in phosphate-buffered saline (PBS) and administered subcutaneously to anesthetized mice using 2% isoflurane (Sigma). When the tumors reached approximately […], doxorubicin (10 mg/kg) was mixed in a 1:1 solution of distilled water and PBS (pH 7.2) and administered intraperitoneally to induce tumor senescence. After 10 days, LX-5701 mixed in PBS at a concentration of 360 mg/kg was administered orally daily for 21 days, or LX-2101 mixed in PBS solution with 5% DMSO at a concentration of 20 mg/kg or LX-2102 mixed in PBS with 5% DMSO at a concentration of 10 mg/kg was administered intraperitoneally daily for 21 days, and then the tumor size was measured. The control group was repeatedly administered a solution mixed with doxorubicin, and then the tumor size was measured.

[1] = test system: naturally aged C57BL6J mice; assay: p16 mRNA in organs of naturally aged mice, Example 21-2, Table 18; assay type: in vivo, mouse; conditions: 22-month-old naturally aged mice, untreated aged = 100%
Method: (§1) 22-month-old female C57BL6J mice (KRIBB Laboratory Animal Resource Center) were acclimated to the experimental environment for one week, after which the aged mice were randomly assigned to experimental and control groups. Eight-week-old, non-aged mice served as controls. LX-403 was mixed in a 10% ethanol solution of PEG400 and administered orally at a concentration of 25 mg/kg daily for 21 days, or administered to the skin, joints, or eyes at a concentration of 1 μM. LX-1801 was mixed in distilled water with 4% DMSO, 30% PEG300, and 5% Tween80 and administered to the skin, joints, or eyes at a concentration of 0.4 μM daily for 21 days. LX-2001 was mixed in PBS and administered to the skin, joints, or eyes at a concentration of […] daily for 21 days. LX-2002 was mixed in distilled water with 4% DMSO, 30% PEG300, and 5% Tween80 and administered to the skin, joints, or eyes at a concentration of 2 μM daily for 21 days. […] LX-2005 was mixed in distilled water with 4% DMSO, 30% PEG300, and 5% Tween80 and administered to the skin, joints, or eyes at a concentration of 90 μM daily for 21 days. LX-2007 was mixed in distilled water with 4% DMSO, 30% PEG300, and 5% Tween80 and administered to the skin, joints, or eyes at a concentration of 90 μM daily for 21 days. […] LX-3002 was mixed in distilled water with 4% DMSO, 30% PEG300, and 5% Tween80 and administered orally at a concentration of 10 mg/kg daily for 21 days. […] LX-5411 was mixed in 5% PBS and administered orally at a concentration of 10 mg/kg daily for 21 days or administered to the skin, joints, or eyes at a concentration of 3 μM. LX-5701 was mixed in PBS and administered orally at a concentration of 360 mg/kg daily for 21 days. LX-6807 was mixed in saline and administered intraperitoneally at a concentration of 1 mg/kg daily for 21 days. LX-2101 or LX-2102 was mixed in PBS solution with 5% DMSO and administered intraperitoneally at a concentration of 20 mg/kg or 10 mg/kg, respectively, daily for 21 days. The control group received only the solution in the same volume. After the end of drug administration, the methods described in each example below were performed.
Mice were sacrificed, and RNA was extracted from each organ tissue using the same method as in Example 7-2 of WO2023-085787 A1. qRT-PCR was performed with the synthesized cDNA. […] The amount of p16 mRNA after aging was calculated as 100% and compared with the amount of p16 mRNA after test compound treatment.

[2] = test system: naturally aged C57BL6J mice; assay: Serum IL6 and MCP1 (ELISA) in naturally aged mice, Example 21-5; assay type: in vivo, mouse; conditions: untreated aged = 100, LX-5701 360 mg/kg po, LX-2101 20 mg/kg ip, LX-2102 10 mg/kg ip, daily 21 days
Method: as §1
The amounts of IL6 and MCP1, senescence-associated secretory factors (SASPs), in serum collected from mice were measured using an enzyme-linked immunosorbent assay (ELISA Kit, R&D Systems).

senescent A549 cells = assay: Viability of senescent A549 cells (CellTiter-Glo), Example 18, Table 15; conditions: Homo sapiens, A549, read-out: Survival (%)
Method: Senescence-induced cancer cells treated with doxorubicin were treated with the test compound at designated concentrations, and cell viability was measured using the CellTiter-Glo Luminescent Cell Viability Assay (Promega).

| Compound | Open Field Test Time in Center (naturally aged mice) | Tumor Diameter (SAOS-2) | p16 mRNA (%), Brain [1] [%] | p16 mRNA (%), Eye [1] [%] | p16 mRNA (%), Femur [1] [%] | p16 mRNA (%), Heart [1] [%] | p16 mRNA (%), Kidney [1] [%] | p16 mRNA (%), Knee joint [1] [%] | p16 mRNA (%), Liver [1] [%] | p16 mRNA (%), Lung [1] [%] | p16 mRNA (%), Muscle [1] [%] | p16 mRNA (%), Skin [1] [%] | p16 mRNA (%), eWAT [1] [%] | IL6 [2] | MCP1 [2] | viability at 1.1 µM (senescent A549 cells) [%] | viability at 10 µM (senescent A549 cells) [%] | viability at 30 µM (senescent A549 cells) [%] |
| --- | --- | --- | --- | --- | --- | --- | --- | --- | --- | --- | --- | --- | --- | --- | --- | --- | --- | --- |
| COC(=O)c1ccc([C@H]2c3[nH]c4ccccc4c3C[C@H](C(=O)OC)N2C(=O)CCl)cc1 [LX-405] | 201.5 (±18.3) % |  |  |  |  |  |  |  |  |  |  |  |  |  |  |  |  |  |
| S=C(N/N=C1\CCCc2cccnc21)N1CCN(c2ccccn2)CC1 [LX-801] | 241.8 (±17.9) % |  |  |  |  |  |  |  |  |  |  |  |  |  |  |  |  |  |
| C[C@@H]1CC[C@@]23C[C@H](O)C(=O)[C@@]2(O)[C@]1(C)[C@H](OC(=O)CCl)C[C@@H](C1=CCn2c(=O)n(-c4ccccc4)c(=O)n2C1)[C@@H]3C [LX-1801, (2S,3aS,4S,5R,7R,8S,8aS,11R)-7-(1,3-Dioxo-2-phenyl-2,3,5,8-tetrahydro-1H-[1,2,4]triazolo[1,2-a]pyridazin-6-yl)-2,3a-dihydroxy-4,8,11-trimethyl-3-oxooctahydro-1H-4,8a-propanoazulen-5-yl 2-Chloroacetate] | 252.9 (±28) % |  |  |  |  |  |  |  |  |  |  |  |  |  |  |  |  |  |
| CC1(C)CC[C@]2(NC(=O)C(C)(F)F)CC[C@]3(C)[C@H](C(=O)C=C4[C@@]5(C)C=C(C#N)C(=O)C(C)(C)[C@@H]5CC[C@]43C)[C@@H]2C1 [LX-2101, Omaveloxolone] | 215.3 (±30.8) % | 6.8 (±1.4) mm | 62 | 62 | 61 | 78 | 46 | 75 | 62 | 54 | 82 | 80 | 42 | 49 (±21.8) % | 58 (±9.5) % |  |  |  |
| COC(=O)[C@]12CCC(C)(C)C[C@H]1[C@H]1C(=O)C=C3[C@@]4(C)C=C(C#N)C(=O)C(C)(C)[C@@H]4CC[C@@]3(C)[C@]1(C)CC2 [LX-2102, Bardoxolone methyl] |  | 7.1 (±2.6) mm | 85 | 72 | 64 | 81 | 53 | 64 | 58 | 71 | 75 | 77 | 39 | 58 (±16.1) % | 61 (±14.0) % |  |  |  |
| COC(=O)[C@H]1Cc2c([nH]c3ccccc23)[C@H](c2ccc(S(C)(=O)=O)cc2)N1C(=O)CCl [LX-5401, methyl (1S,3R)-2-(2-chloroacetyl)-1-(4-(methylsulfonyl)phenyl)-2,3,4,9-tetrahydro-1H-pyrido[3,4-b]indole-3-carboxylate] |  |  |  |  |  |  |  |  |  |  |  |  |  |  |  | 92.7 | 43.8 | 1.9 |
| C#CC(=O)N1[C@@H](CCCC)Cc2cc(OC)ccc2[C@@H]1c1ccc(NC23CC4CC(CC(C4)C2)C3)cc1 [LX-5411] |  |  |  |  |  |  |  |  |  |  |  |  |  |  |  | 75.4 | 5.3 |  |
| O=C1C2CCN(CC2)C1CNC(=O)C(F)(F)F (stereo not drawn) [LX-5701] |  | 6.1 (±4.9) mm | 71 | 63 | 70 | 72 | 42 | 66 | 34 | 58 | 64 | 75 | 51 | 68 (±14.1) % | 62 (±9.8) % | 82.3 | 43.8 | 16.2 |
| Cc1cccc([C@H](C)c2cnc[nH]2)c1C [LX-6807, Dexmedetomidine] |  |  |  |  |  |  |  |  |  |  |  |  |  |  |  | 94.1 | 76.5 | 6.6 |
